[I] = hypoxanthine (inosine)
Tests used:
[1] = molecular target: T1, TLR7 (Homo sapiens, UniProt Q9NYK1); type: cell-based
T1 construct: endogenous in cells; host or cells: primary human plasmacytoid dendritic cells from blood donors
T1 sequence (Q9NYK1 27-1049): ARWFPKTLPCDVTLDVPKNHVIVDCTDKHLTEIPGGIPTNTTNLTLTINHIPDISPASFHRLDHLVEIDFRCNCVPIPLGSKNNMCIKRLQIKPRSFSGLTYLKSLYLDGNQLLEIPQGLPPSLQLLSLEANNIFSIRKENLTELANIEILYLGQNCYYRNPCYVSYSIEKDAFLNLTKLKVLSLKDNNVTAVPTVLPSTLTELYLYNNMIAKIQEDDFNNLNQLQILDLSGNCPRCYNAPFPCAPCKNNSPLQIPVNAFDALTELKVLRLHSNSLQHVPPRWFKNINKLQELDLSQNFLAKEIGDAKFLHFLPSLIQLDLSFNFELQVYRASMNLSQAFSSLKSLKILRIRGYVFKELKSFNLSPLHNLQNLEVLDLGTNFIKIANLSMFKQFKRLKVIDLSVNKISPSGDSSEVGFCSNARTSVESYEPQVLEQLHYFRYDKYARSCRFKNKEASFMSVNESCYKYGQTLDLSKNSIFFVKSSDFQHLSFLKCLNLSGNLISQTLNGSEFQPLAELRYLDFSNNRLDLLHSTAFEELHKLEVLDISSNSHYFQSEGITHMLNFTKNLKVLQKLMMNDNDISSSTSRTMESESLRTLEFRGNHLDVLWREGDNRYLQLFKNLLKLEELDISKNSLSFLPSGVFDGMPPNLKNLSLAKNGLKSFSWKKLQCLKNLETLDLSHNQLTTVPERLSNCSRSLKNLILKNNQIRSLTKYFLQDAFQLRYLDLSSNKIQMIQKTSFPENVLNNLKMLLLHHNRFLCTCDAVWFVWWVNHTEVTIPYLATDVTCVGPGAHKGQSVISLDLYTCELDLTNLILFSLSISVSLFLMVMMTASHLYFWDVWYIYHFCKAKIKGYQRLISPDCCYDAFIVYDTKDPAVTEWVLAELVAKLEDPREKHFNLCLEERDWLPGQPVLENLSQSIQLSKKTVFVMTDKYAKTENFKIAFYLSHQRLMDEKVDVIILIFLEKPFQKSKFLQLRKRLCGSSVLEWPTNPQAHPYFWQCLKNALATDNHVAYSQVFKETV

[2] = molecular target: T2, TLR7 (Mus musculus, UniProt P58681); assay: Tape stripping in TLR9-deficient mice; type: in vivo; conditions: 100 μg sc, 24 hr
T2 construct: endogenous in cells; host or cells: primary splenocytes of BALB/c mice
T2 sequence (P58681 27-1050): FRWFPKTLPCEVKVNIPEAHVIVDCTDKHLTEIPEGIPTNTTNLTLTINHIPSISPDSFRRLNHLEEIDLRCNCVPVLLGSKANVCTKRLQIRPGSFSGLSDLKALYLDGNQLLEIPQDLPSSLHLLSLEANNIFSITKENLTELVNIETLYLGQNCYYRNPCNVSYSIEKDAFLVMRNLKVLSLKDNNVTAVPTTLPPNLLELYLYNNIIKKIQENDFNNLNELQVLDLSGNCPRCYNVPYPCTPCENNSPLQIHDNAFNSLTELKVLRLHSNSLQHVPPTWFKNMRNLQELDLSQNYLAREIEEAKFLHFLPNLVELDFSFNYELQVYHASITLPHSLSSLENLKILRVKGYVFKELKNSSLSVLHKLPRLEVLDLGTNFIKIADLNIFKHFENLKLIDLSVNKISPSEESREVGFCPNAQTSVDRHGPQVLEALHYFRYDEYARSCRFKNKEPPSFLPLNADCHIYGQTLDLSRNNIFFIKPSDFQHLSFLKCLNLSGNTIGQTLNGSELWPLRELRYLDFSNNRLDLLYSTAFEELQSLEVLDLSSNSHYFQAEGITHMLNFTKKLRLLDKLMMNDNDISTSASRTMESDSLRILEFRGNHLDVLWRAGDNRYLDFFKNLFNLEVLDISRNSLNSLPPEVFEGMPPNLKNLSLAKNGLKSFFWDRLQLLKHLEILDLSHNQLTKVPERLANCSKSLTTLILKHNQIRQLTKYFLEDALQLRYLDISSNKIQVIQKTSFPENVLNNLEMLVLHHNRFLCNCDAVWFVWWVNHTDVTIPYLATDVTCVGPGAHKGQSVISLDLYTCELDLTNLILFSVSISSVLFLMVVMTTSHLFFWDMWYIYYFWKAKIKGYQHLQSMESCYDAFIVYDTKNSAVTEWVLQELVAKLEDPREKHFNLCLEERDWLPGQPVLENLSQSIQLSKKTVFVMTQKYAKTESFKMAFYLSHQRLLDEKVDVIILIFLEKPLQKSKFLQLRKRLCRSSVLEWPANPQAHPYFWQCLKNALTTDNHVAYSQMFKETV
Procedure: (A) TLR7−/− (black histograms) and age matched WT C57/BL6 mice (grey histograms) were either left untreated (naive) or tape stripped to provoke inflammation. 24 hr later, skin biopsies were isolated and the levels of proinflammatory genes evaluated by Taqman. n=10 mice is shown (Mean±SEM); * p≦0.05. B) TLR9−/− were tape stripped (black histograms) or tape stripped immediately after treatment (s.c) with the dual TLR7 and TLR9 inhibitor IRS 954 (100 μg; sc) (dashed histograms). Age matched WT C57/BL6 mice were either left untreated (naïve; white histograms) or tape stripped (grey histograms). 24 hr later, skin biopsies were isolated and the levels of proinflammatory genes evaluated by Taqman. n=10 mice is shown (Mean±SEM); * p≦0.05.
C57BL/6 and 129 mice were purchased from Charles River Laboratories. (NZBxNZW)F1 female mice were purchased from Jackson Laboratories and used at 18-22 weeks of age. MyD88/KO and TLR9/KO mouse colonies were maintained at Simonsen Laboratories and used with age matched C57BL/6 wild type controls at 8-12 weeks of age. Tape stripping was performed after shaving the dorsal area (3×3 cm) using 10 strokes with duct tape. IRS was administered just before tape stripping SC at a distant site. […] Percentage of area with open lesions in (NZBxNZW)F1 and normal mice was evaluated with Nikon software NIS-elements.

[3] = test system: PDC; conditions: in vitro, with GC

Row | Substance | IC50 ([1]; read-out: IC50, IFN-α, FLU) [nM] | IC90 ([1]; read-out: IC90, IFN-α, FLU) [nM] | inhibition of skin gene expression [2] | GC sensitivity of TLR7/9-stimulated PDC [3]
1 | 5′-TGC TCC TGG AGI GGT TGT-3′ (DNA TGCTCCTGGAGNGGTTGT; DNA, [I] at 12, backbone and methylation of C not given here) [SEQ ID NO:73] | 13 | 101 |  | 
2 | 5′-TGCTCCTGGAGGGGTTGT-3′ (DNA, backbone not given here) [SEQ ID NO:42] |  |  | completed the inhibition | restored GC sensitivity to PDC
